Reference: patent US20070142462A1, “Method of Treating Cancer” (The University of Utah, priority 2000, published 2007)

Experiments:
Format in all cases: cell-based, human
M1619 melanoma cells = assay: MTT proliferation assay, M1619 melanoma; conditions: for Proliferation of M1619 melanoma cells (MTT, A540): 10% FBS, agents added at plating, 48 hours (ebselen 72 hours)
Method: Measurement of Proliferation in Cell Cultures. Proliferation of cultured cells was quantitated using a previously reported calorimetric method based upon metabolic reduction of the soluble yellow tetrazolium dye 3-[4,5-dimethylthiazol]-2yl-2,5-diphenyl tetrazolium bromide (MTT) to its insoluble purple formazan by the action of mitochondrial succinyl dehydrogenase. […] This assay empirically distinguishes between dead and living cells. For proliferation studies, cells were seeded into 24-well uncoated plastic plates (Costar) at 15,000-50,000 cells per well and cultured with respective media and mitogens. After 24-96 hours, medium was removed, cells were washed twice with 1 ml of sterile Dulbecco's modified phosphate buffered saline without Ca^2+ or Mg^2+ (DPBS), the medium was replaced with 1 ml/well fresh medium containing 100 μg/ml MTT, and plates were incubated an additional hour. MTT-containing medium was removed, 0.5 ml dimethylsulfoxide (DMSO) was added to each well, and the absorbance of the solubilized purple formazan dye was measured at 540 nm. A total of 4-6 wells was studied at each treatment condition. Preliminary studies were performed with 50-200 μg/ml MTT incubated for 15 min to 3 hours to determine the optimum concentration and incubation time at which the rate of conversion was linear and proportional to the number of cells present.
(§1) Cell Culture Treatments. The effect of antioxidant treatments on proliferation of malignant cell lines was studied in cultures stimulated with 10% FBS. Cell numbers were quantitated by the MTT assay 24-72 hours later. In some experiments, antioxidants were added immediately after cells were plated. In other experiments, cells were plated and allowed to grow for 24 hours before fresh media with antioxidants was added, and cell numbers were studied by the MTT assay 48 hours later.
A. M1619 melanoma cells stimulated with 10% fetal bovine serum (FBS) were plated at a density of 50,000 cells per well and antioxidants were added to wells at the indicated concentrations (mM or U/ml). After 48 hours, proliferation was quantitated by assessing the cell number-dependent reduction of the soluble yellow tetrazolium dye 3-[4,5-dimethylthiazol]-2yl-2,5-diphenyl tetrazolium bromide (MTT) to its insoluble formazan, measured as the absorbance at 540 nm (A540). The antioxidants tested included no antioxidant (control, i.e., FBS alone), 1000 U/ml SOD, 20 mM NAC, 500 U/ml, 1000 U/ml, and 3000 U/ml of catalase, and boiled […] catalase.
B. In a separate experiment, 2 μl/well of DMSO (served as control), 5 μM, 10 μM, and 25 μM Ebselen were tested on M1619 melanoma cells as described above, except that the cells were cultured for 72 hours before proliferation was measured.
C. 3000 U/ml Catalase, 2 μl/well DMSO, 25 μM Ebselen, and 50 μM Ebselen were tested as described above except that the compounds were added 24 hours after M1619 cells were plated. After the addition of antioxidants, the cells were incubated for an additional 48 hours and cell proliferation was quantitated. […]

M1619 cells = assay: Ferricytochrome c reduction (O2− generation) by M1619 cells; conditions: 160 μM ferricytochrome c; capsaicin 100 μM; dicumarol 250 μM pre-treatment 60 min; other inhibitors as
Method: Measurement of Reactive Oxygen Species. Superoxide (O2^−) generation was measured by the technique of superoxide dismutase (SOD) inhibitable reduction of ferricytochrome c, employing a modification allowing absorbance reading with an automatic enzyme immunoassay reader. See Friovich, I. in Handbook of Methods for Oxygen Radical Research (Greenwald, R. A., ed.), pp 121-122, CRC Press, Boca Raton, Fla., 1985; Pick, E. et al. J. Immunol. Methods 46:211-226 (1981). Confluent cells grown on 24-well plates were washed with DPBS, and incubated in 5% CO2/air at 37° C. with 160 μM ferricytochrome c in total volume of 550 μl of sodium bicarbonate-containing Krebs-Heinseleit buffer, or Hanks Balanced Salt Solution (HBSS), with and without copper-zinc SOD (1,000 units/ml). See Nozik-Grayck, et al., Am J. Physiol. 273 (17):L296-L304 (1997). The absorbance of each well was measured at 550 nm initially and 3-24 hours later using an ELx800 UV automated microplate reader (Biotek Instruments, Highland Park, Vt.). Monolayers were then washed with DPBS, and cell protein was measured using the BCA protein assay (Pierce). O2^− generation, normalized to cell protein, was computed from the Beer-Lambert relationship, as the quotient of SOD-inhibitable increase absorbance over time divided by the difference between the molar extinction coefficients for ferricytochrome c and ferrocytochrome c (ΔEM=2.1×10^4 M^−1 cm^−1). See Bashford, in Spectrophotometry & Spectrofluorimetry. A Practical Approach (Harris, D. A., and Bashford, C. L., eds) pp. 1-22, IRL Press, Washington, D.C., 1987; Friovich, I. in Handbook of Methods for Oxygen Radical Research (Greenwald, R. A., ed) pp 121-122, CRC Press, Boca Raton, Fla., 1985. […].
A. Capsaicin inhibits ferricytochrome c reduction. M1619 cells grown on 24-well plates were washed with DPBS, and incubated in 5% CO2/air at 37° C. with 160 μM ferricytochrome c in total volume of 550 μl of HBSS with or without the quinone analog capsaicin (100 μM final concentration) added in 5 μl/ml of ethanol. The absorbance of each well was measured at 550 nm initially and 3 hours later using an ELx800 UV automated microplate reader (Biotek Instruments, Highland Park, Vt.). The results are illustrated in FIG. 8A.
. […]. The results are illustrated in FIG. 9A.

NF-κB = assay: EMSA of constitutive nuclear NF-κB DNA binding, M1619; conditions: 24 hours, catalase 3,000 U/ml, NAC 20 mM, Ebselen 25 μM, dicumarol 250 μM
Excerpt: Electrophoretic Mobility Shift Assays (EMSAs). […] J. Respir.

Melanoma M1585 cells = assay: MTT proliferation assay, M1585 melanoma; conditions: Homo sapiens; Ebselen 25 μM; 10% FBS; 48 hours; mean±SE vs FBS+DMSO control; read-out: Percent Growth Inhibition
Method: (§2) Measurement of Proliferation in Cell Cultures. […] This assay empirically distinguishes between dead and living cells.
as §1
(§3) Cells stimulated with 10% FBS were plated at a density of 50,000 cells per well. DMSO and antioxidants were added to cell wells at the indicated concentrations. […] Each value represents a mean of at least 4 experiments.

[1] = test system: Adeno-squamous lung carcinoma NCI-H596 cells; assay: MTT proliferation assay, NCI-H596 lung carcinoma; conditions: Homo sapiens, NCI-H596; Ebselen 25 μM; 10% FBS; 48 hours; mean±SE vs FBS+DMSO control; read-out: Percent Growth Inhibition
Method: as §2, §1, §3

[2] = test system: LNCaP.FGC prostate adenocarcinoma cells; assay: MTT proliferation assay, LNCaP.FGC prostate adenocarcinoma; conditions: Homo sapiens; Ebselen 25 μM; 10% FBS; 48 hours; mean±SE vs FBS+DMSO control; read-out: Percent Growth Inhibition
Method: as §2, §1, §3

[3] = test system: breast carcinoma MDA-MB-453 cells; assay: MTT proliferation assay, MDA-MB-453 breast carcinoma; conditions: Homo sapiens, MDA-MB-453; Ebselen 25 μM; 10% FBS; 72 hours; mean±SE vs FBS+DMSO control; read-out: Percent Growth Inhibition
Method: as §2, §1, §3

p65 component of NF-κB = assay: Immunohistochemical localization of p65 in M1619 cells; conditions: 24 hours, catalase 3,000 U/ml, apocynin 150 μg/ml, dicumarol 250 μM
Method: The effect of antioxidants on nuclear activation of NF-κB was studied by incubating near confluent (70%) cell cultures with antioxidant treatments for 1-48 hours. Nuclear protein was harvested, and EMSAs were performed using DNA consensus binding sequences, or nuclear translocation of the p65 component of NF-κB was studied by immunoperoxidase staining, as outlined below.
Immunohistochemical Localization of NF-κB. Cells grown on sterile coverslips and treated with catalase 3,000 U/ml, apocynin 150 μg/ml, or DPBS or DMSO vehicles for 24 h were fixed for 20 min on ice with 4% paraformaldehyde in DPBS with protease inhibitors, PI [Sigma protease inhibitor cocktail, 10 μl/ml, containing 4-(2-aminoethyl)benzensulfonyl fluoride (AEBSF), pepstatin A, trans-epoxysuccinyl-L-leucylamindo-(guanidino)butane (E-64), bestatin, leupeptin and aprotinin]. Cells were permeabilized by treating for 2 min with 0.1% NP-40 in DPBS/PI, washed once with cold DPBS and fixed as before for 10 min. Coverslips were incubated in 3% hydrogen peroxide for 30 min to suppress any remaining peroxidase, and washed three times in cold DPBS. The permeabilized and fixed cells were blocked for 2 hours with 2% BSA in DPBS on ice and incubated overnight at 4° C. with 1 μg/ml of anti-p65 antibody (Santa Cruz) diluted in 0.1% BSA/DPBS. Unbound anti-p65 was washed away with 2% BSA/DPBS and bound antibody was stained by incubation with biotinylated goat anti-rabbit immunoglobulin diluted 1:50 in 0.1% BSA/DPBS for 45 min on ice. Excess secondary antibody was washed away by 3 washes with 2% BSA/DPBS on ice. After washing, the cells were incubated with a streptavidin-biotin-peroxidase complex at room temperature for 1 hr, washed again, and incubated in 0.03% wt/vol 3-3′diaminobenzidine with 0.003% vol/vol hydrogen peroxide until a brown reaction product could be seen. Cells were then counterstained with eosin and mounted on glass slides before viewing under light microscopy. […]

GRO-α = GRO-α ELISA in culture medium; conditions: M1619; dicumarol 24 hours
Method: To study the impact of inhibiting NF-κB activation with antioxidants, cellular expression of the autocrine growth factor GRO-α was studied in near confluent monolayers of M1619 cells grown in 24-well plates. Cells were either treated with fresh complete medium or fresh medium containing 25 μM ebselen. After 24 hours, supernatants were harvested, microcentrifuged to remove cellular debris and frozen at −20° C. until GRO-α measurement as outlined below.
Measurement of GRO-α Expression. GRO-α was measured in culture medium from untreated and ebselen treated cells using a commercial ELISA purchased from R&D Systems, Minneapolis, Minn. This assay could not be used to detect GRO-α production by catalase treated cells because of interference in the peroxidase-based ELISA by catalase in the cell supernatant.
[…]. After 24 hours, GRO-α concentration was measured in media.

Structure (SMILES) | Proliferation of M1619 melanoma cells (MTT, A540) (M1619 melanoma cells) | ferricytochrome c reduction by M1619 cells (M1619 cells) | also measured
CN/C(=N/CCSCc1nc[nH]c1C)NC#N [cimetidine] | Neither cellular reduction of ferricytochrome c nor proliferation were reduced | Neither cellular reduction of ferricytochrome c nor proliferation were reduced | –
O=c1c2ccccc2[se]n1-c1ccccc1 [Ebselen, 2-phenyl-1,2-benzisoselenazol-3(2H)-one] | dramatically reduced | – | constitutive NF-κB DNA binding activity in nuclear protein (NF-κB): substantially reduced; inhibition at 25 µM (Melanoma M1585 cells): 94 ± 2%; inhibition at 25 µM [1]: 57 ± 2%; inhibition at 25 µM [2]: 100%; Proliferation of M1619 melanoma cells, agents added 24 hours after plating (M1619 melanoma cells; catalase 3000 U/ml, Ebselen 25 and 50 μM, further 48 hours): antiproliferative; inhibition at 25 µM [3]: 69 ± 4%
Oc1ncnc2[nH]ncc12 [allopurinol] | Neither cellular reduction of ferricytochrome c nor proliferation were reduced | Neither cellular reduction of ferricytochrome c nor proliferation were reduced | –
COc1ccc2c(c1)c(CC(=O)O)c(C)n2C(=O)c1ccc(Cl)cc1 [indomethacin] | Neither cellular reduction of ferricytochrome c nor proliferation were reduced | Neither cellular reduction of ferricytochrome c nor proliferation were reduced | –
C=C(C)[C@H]1Cc2c(ccc3c2O[C@@H]2COc4cc(OC)c(OC)cc4[C@@H]2C3=O)O1 [retenone] | Neither cellular reduction of ferricytochrome c nor proliferation were reduced | Neither cellular reduction of ferricytochrome c nor proliferation were reduced | –
COc1cc(C(C)=O)ccc1O [apocynin, 4′-hydroxy-3′-methoxy-acetophenone] | significantly reduced proliferation | – | anti-p65 staining in nuclei (nuclear translocation of NF-κB) (p65 component of NF-κB): little staining in nuclei
N=C(NCCC[C@H](N)C(=O)O)N[N+](=O)[O-] [ω-nitro-L-arginine, Nω-nitro-L-arginine] | Neither cellular reduction of ferricytochrome c nor proliferation were reduced | Neither cellular reduction of ferricytochrome c nor proliferation were reduced | –
COc1cc(CNC(=O)CCCC/C=C/C(C)C)ccc1O [capsaicin, 8-methyl-N-vanillyl-6-noneamide] | significantly reduced proliferation | significantly decreased | –
c1ccc2c(c1)[I+]c1ccccc1-2 [diphenylene iodonium chloride] | significantly reduced proliferation | – | –
CC(=O)N[C@@H](CS)C(=O)O [N-acetylcysteine] | reduced proliferation | – | –
O=c1oc2ccccc2c(O)c1Cc1c(O)c2ccccc2oc1=O [Dicumarol, 3,3′-methylenebis[4-hydroxy-2H-1-benzopyran-2-one]] | – | significantly decreased | GRO-α protein expression (GRO-α): dramatic reduction; anti-p65 staining in nuclei (nuclear translocation of NF-κB) (p65 component of NF-κB): little staining in nuclei
